Data taken from ChEMBL document CHEMBL2040848, “Synthesis and bioactivity evaluation of rhodanine derivatives as potential anti-bacterial agents” (2012).
Values after ≈ are worked out from the molar mass of the structure shown.

These compounds were tested on Staphylococcus aureus (assay: Antibacterial activity against Staphylococcus aureus KCTC 4220 after 24 hrs by two-fold serial dilution method). Conditions: KCTC 4220, 24 h.
Format: functional

SMILES | MIC [µg/mL]
O=C(COc1ccc(/C=C2\SC(=S)N([C@@H](Cc3c[nH]c4ccccc34)C(=O)O)C2=O)cc1)c1cccc(Cl)c1 | 8 (≈ 13.9 µM)
O=C(COc1ccc(/C=C2\SC(=S)N([C@@H](Cc3c[nH]c4ccccc34)C(=O)O)C2=O)cc1)c1ccc(F)cc1 | 4 (≈ 7.13 µM)
O=C(COc1ccc(/C=C2\SC(=S)N([C@@H](Cc3c[nH]c4ccccc34)C(=O)O)C2=O)cc1)c1ccc(Cl)cc1Cl | 8 (≈ 13.1 µM)
Cc1ccc(C(=O)COc2ccc(/C=C3\SC(=S)N([C@@H](Cc4c[nH]c5ccccc45)C(=O)O)C3=O)cc2)cc1 | 8 (≈ 14.4 µM)
O=C(COc1ccc(/C=C2\SC(=S)N([C@@H](Cc3c[nH]c4ccccc34)C(=O)O)C2=O)cc1)c1ccccc1 | 8 (≈ 14.7 µM)
O=C(COc1ccc(/C=C2\SC(=S)N([C@@H](Cc3ccc(O)cc3)C(=O)O)C2=O)cc1)c1ccccc1Br | 32 (≈ 53.5 µM)
O=C(COc1ccc(/C=C2\SC(=S)N([C@@H](Cc3ccc(O)cc3)C(=O)O)C2=O)cc1)c1ccc(F)cc1 | 8 (≈ 14.9 µM)

What follows are compounds tested on Escherichia coli (assay: Antibacterial activity against Escherichia coli 1356 after 24 hrs by two-fold serial dilution method). Conditions: Escherichia coli, 1356, 24 h.
Format: functional

SMILES | MIC [µg/mL]
O=C(COc1ccc(/C=C2\SC(=S)N([C@@H](Cc3c[nH]c4ccccc34)C(=O)O)C2=O)cc1)c1cccc(Cl)c1 | > 64
O=C(COc1ccc(/C=C2\SC(=S)N([C@@H](Cc3c[nH]c4ccccc34)C(=O)O)C2=O)cc1)c1ccc(F)cc1 | > 64
O=C(COc1ccc(/C=C2\SC(=S)N([C@@H](Cc3c[nH]c4ccccc34)C(=O)O)C2=O)cc1)c1ccc(Cl)cc1Cl | > 64
Cc1ccc(C(=O)COc2ccc(/C=C3\SC(=S)N([C@@H](Cc4c[nH]c5ccccc45)C(=O)O)C3=O)cc2)cc1 | > 64
O=C(COc1ccc(/C=C2\SC(=S)N([C@@H](Cc3c[nH]c4ccccc34)C(=O)O)C2=O)cc1)c1ccccc1 | > 64
O=C(COc1ccc(/C=C2\SC(=S)N([C@@H](Cc3ccc(O)cc3)C(=O)O)C2=O)cc1)c1ccccc1Br | > 64
O=C(COc1ccc(/C=C2\SC(=S)N([C@@H](Cc3ccc(O)cc3)C(=O)O)C2=O)cc1)c1ccc(F)cc1 | > 64

These compounds were tested on Staphylococcus aureus (assay: Antibacterial activity against methicillin-resistant Staphylococcus aureus CCARM 3506 after 24 hrs by two-fold serial dilution method). Conditions: CCARM 3506, 24 h.
Format: functional

SMILES | MIC [µg/mL]
O=C(COc1ccc(/C=C2\SC(=S)N([C@@H](Cc3c[nH]c4ccccc34)C(=O)O)C2=O)cc1)c1cccc(Cl)c1 | 1 (≈ 1.73 µM)
O=C(COc1ccc(/C=C2\SC(=S)N([C@@H](Cc3c[nH]c4ccccc34)C(=O)O)C2=O)cc1)c1ccc(F)cc1 | 4 (≈ 7.13 µM)
O=C(COc1ccc(/C=C2\SC(=S)N([C@@H](Cc3c[nH]c4ccccc34)C(=O)O)C2=O)cc1)c1ccc(Cl)cc1Cl | 8 (≈ 13.1 µM)
Cc1ccc(C(=O)COc2ccc(/C=C3\SC(=S)N([C@@H](Cc4c[nH]c5ccccc45)C(=O)O)C3=O)cc2)cc1 | 8 (≈ 14.4 µM)
O=C(COc1ccc(/C=C2\SC(=S)N([C@@H](Cc3c[nH]c4ccccc34)C(=O)O)C2=O)cc1)c1ccccc1 | 8 (≈ 14.7 µM)
O=C(COc1ccc(/C=C2\SC(=S)N([C@@H](Cc3ccc(O)cc3)C(=O)O)C2=O)cc1)c1ccccc1Br | 32 (≈ 53.5 µM)
O=C(COc1ccc(/C=C2\SC(=S)N([C@@H](Cc3ccc(O)cc3)C(=O)O)C2=O)cc1)c1ccc(F)cc1 | 8 (≈ 14.9 µM)

The compounds below were run on Staphylococcus aureus (assay: Antibacterial activity against methicillin-resistant Staphylococcus aureus CCARM 3167 after 24 hrs by two-fold serial dilution method). Conditions: CCARM 3167, 24 h.
Format: functional

SMILES | MIC [µg/mL]
O=C(COc1ccc(/C=C2\SC(=S)N([C@@H](Cc3c[nH]c4ccccc34)C(=O)O)C2=O)cc1)c1cccc(Cl)c1 | 1 (≈ 1.73 µM)
O=C(COc1ccc(/C=C2\SC(=S)N([C@@H](Cc3c[nH]c4ccccc34)C(=O)O)C2=O)cc1)c1ccc(F)cc1 | 4 (≈ 7.13 µM)
O=C(COc1ccc(/C=C2\SC(=S)N([C@@H](Cc3c[nH]c4ccccc34)C(=O)O)C2=O)cc1)c1ccc(Cl)cc1Cl | 4 (≈ 6.54 µM)
Cc1ccc(C(=O)COc2ccc(/C=C3\SC(=S)N([C@@H](Cc4c[nH]c5ccccc45)C(=O)O)C3=O)cc2)cc1 | 4 (≈ 7.19 µM)
O=C(COc1ccc(/C=C2\SC(=S)N([C@@H](Cc3c[nH]c4ccccc34)C(=O)O)C2=O)cc1)c1ccccc1 | 8 (≈ 14.7 µM)
O=C(COc1ccc(/C=C2\SC(=S)N([C@@H](Cc3ccc(O)cc3)C(=O)O)C2=O)cc1)c1ccccc1Br | 16 (≈ 26.7 µM)
O=C(COc1ccc(/C=C2\SC(=S)N([C@@H](Cc3ccc(O)cc3)C(=O)O)C2=O)cc1)c1ccc(F)cc1 | 8 (≈ 14.9 µM)

The compounds below were run on Staphylococcus aureus (assay: Ratio of MIC for norfloxacin to compound for quinolone-resistant Staphylococcus aureus CCARM 3505 after 24 hrs by two-fold serial dilution method). Conditions: not given.
Format: functional

SMILES | Ratio
O=C(COc1ccc(/C=C2\SC(=S)N([C@@H](Cc3c[nH]c4ccccc34)C(=O)O)C2=O)cc1)c1cccc(Cl)c1 | 64

Each compound was assayed on Staphylococcus aureus (assay: Antibacterial activity against Staphylococcus aureus KCTC 503 after 24 hrs by two-fold serial dilution method). Conditions: KCTC 503, 24 h.
Format: functional

SMILES | MIC [µg/mL]
O=C(COc1ccc(/C=C2\SC(=S)N([C@@H](Cc3c[nH]c4ccccc34)C(=O)O)C2=O)cc1)c1cccc(Cl)c1 | 4 (≈ 6.93 µM)
O=C(COc1ccc(/C=C2\SC(=S)N([C@@H](Cc3c[nH]c4ccccc34)C(=O)O)C2=O)cc1)c1ccc(F)cc1 | 4 (≈ 7.13 µM)
O=C(COc1ccc(/C=C2\SC(=S)N([C@@H](Cc3c[nH]c4ccccc34)C(=O)O)C2=O)cc1)c1ccc(Cl)cc1Cl | 8 (≈ 13.1 µM)
Cc1ccc(C(=O)COc2ccc(/C=C3\SC(=S)N([C@@H](Cc4c[nH]c5ccccc45)C(=O)O)C3=O)cc2)cc1 | 4 (≈ 7.19 µM)
O=C(COc1ccc(/C=C2\SC(=S)N([C@@H](Cc3c[nH]c4ccccc34)C(=O)O)C2=O)cc1)c1ccccc1 | 8 (≈ 14.7 µM)
O=C(COc1ccc(/C=C2\SC(=S)N([C@@H](Cc3ccc(O)cc3)C(=O)O)C2=O)cc1)c1ccccc1Br | 16 (≈ 26.7 µM)
O=C(COc1ccc(/C=C2\SC(=S)N([C@@H](Cc3ccc(O)cc3)C(=O)O)C2=O)cc1)c1ccc(F)cc1 | 8 (≈ 14.9 µM)

Each compound was assayed on Staphylococcus aureus (assay: Antibacterial activity against Staphylococcus aureus KCTC 209 after 24 hrs by two-fold serial dilution method). Conditions: KCTC 209, 24 h.
Format: functional

SMILES | MIC [µg/mL]
O=C(COc1ccc(/C=C2\SC(=S)N([C@@H](Cc3c[nH]c4ccccc34)C(=O)O)C2=O)cc1)c1cccc(Cl)c1 | 4 (≈ 6.93 µM)
O=C(COc1ccc(/C=C2\SC(=S)N([C@@H](Cc3c[nH]c4ccccc34)C(=O)O)C2=O)cc1)c1ccc(F)cc1 | 4 (≈ 7.13 µM)
O=C(COc1ccc(/C=C2\SC(=S)N([C@@H](Cc3c[nH]c4ccccc34)C(=O)O)C2=O)cc1)c1ccc(Cl)cc1Cl | 4 (≈ 6.54 µM)
Cc1ccc(C(=O)COc2ccc(/C=C3\SC(=S)N([C@@H](Cc4c[nH]c5ccccc45)C(=O)O)C3=O)cc2)cc1 | 4 (≈ 7.19 µM)
O=C(COc1ccc(/C=C2\SC(=S)N([C@@H](Cc3c[nH]c4ccccc34)C(=O)O)C2=O)cc1)c1ccccc1 | 8 (≈ 14.7 µM)
O=C(COc1ccc(/C=C2\SC(=S)N([C@@H](Cc3ccc(O)cc3)C(=O)O)C2=O)cc1)c1ccccc1Br | 16 (≈ 26.7 µM)
O=C(COc1ccc(/C=C2\SC(=S)N([C@@H](Cc3ccc(O)cc3)C(=O)O)C2=O)cc1)c1ccc(F)cc1 | 8 (≈ 14.9 µM)

The compounds below were run on Staphylococcus aureus (assay: Ratio of MIC for norfloxacin to compound for quinolone-resistant Staphylococcus aureus CCARM 3519 after 24 hrs by two-fold serial dilution method). Conditions: not given.
Format: functional

SMILES | Ratio
O=C(COc1ccc(/C=C2\SC(=S)N([C@@H](Cc3c[nH]c4ccccc34)C(=O)O)C2=O)cc1)c1cccc(Cl)c1 | 64

What follows are compounds tested on Staphylococcus aureus (assay: Antibacterial activity against quinolone-resistant Staphylococcus aureus CCARM 3505 after 24 hrs by two-fold serial dilution method). Conditions: CCARM 3505, 24 h.
Format: functional

SMILES | MIC [µg/mL]
O=C(COc1ccc(/C=C2\SC(=S)N([C@@H](Cc3c[nH]c4ccccc34)C(=O)O)C2=O)cc1)c1cccc(Cl)c1 | 1 (≈ 1.73 µM)
O=C(COc1ccc(/C=C2\SC(=S)N([C@@H](Cc3c[nH]c4ccccc34)C(=O)O)C2=O)cc1)c1ccc(F)cc1 | 4 (≈ 7.13 µM)
O=C(COc1ccc(/C=C2\SC(=S)N([C@@H](Cc3c[nH]c4ccccc34)C(=O)O)C2=O)cc1)c1ccc(Cl)cc1Cl | 4 (≈ 6.54 µM)
Cc1ccc(C(=O)COc2ccc(/C=C3\SC(=S)N([C@@H](Cc4c[nH]c5ccccc45)C(=O)O)C3=O)cc2)cc1 | 4 (≈ 7.19 µM)
O=C(COc1ccc(/C=C2\SC(=S)N([C@@H](Cc3c[nH]c4ccccc34)C(=O)O)C2=O)cc1)c1ccccc1 | 8 (≈ 14.7 µM)
O=C(COc1ccc(/C=C2\SC(=S)N([C@@H](Cc3ccc(O)cc3)C(=O)O)C2=O)cc1)c1ccccc1Br | 16 (≈ 26.7 µM)
O=C(COc1ccc(/C=C2\SC(=S)N([C@@H](Cc3ccc(O)cc3)C(=O)O)C2=O)cc1)c1ccc(F)cc1 | 8 (≈ 14.9 µM)

These compounds were tested on Staphylococcus aureus (assay: Ratio of MIC for oxacillin to compound for methicillin-resistant Staphylococcus aureus CCARM 3167 after 24 hrs by two-fold serial dilution method). Conditions: not given.
Format: functional

SMILES | Ratio
O=C(COc1ccc(/C=C2\SC(=S)N([C@@H](Cc3c[nH]c4ccccc34)C(=O)O)C2=O)cc1)c1cccc(Cl)c1 | 64

These compounds were tested on Staphylococcus aureus (assay: Ratio of MIC for oxacillin to compound for methicillin-resistant Staphylococcus aureus CCARM 3506 after 24 hrs by two-fold serial dilution method). Conditions: not given.
Format: functional

SMILES | Ratio
O=C(COc1ccc(/C=C2\SC(=S)N([C@@H](Cc3c[nH]c4ccccc34)C(=O)O)C2=O)cc1)c1cccc(Cl)c1 | 64

Each compound was assayed on Staphylococcus aureus (assay: Antibacterial activity against quinolone-resistant Staphylococcus aureus CCARM 3519 after 24 hrs by two-fold serial dilution method). Conditions: CCARM 3519, 24 h.
Format: functional

SMILES | MIC [µg/mL]
O=C(COc1ccc(/C=C2\SC(=S)N([C@@H](Cc3c[nH]c4ccccc34)C(=O)O)C2=O)cc1)c1cccc(Cl)c1 | 1 (≈ 1.73 µM)
O=C(COc1ccc(/C=C2\SC(=S)N([C@@H](Cc3c[nH]c4ccccc34)C(=O)O)C2=O)cc1)c1ccc(F)cc1 | 4 (≈ 7.13 µM)
O=C(COc1ccc(/C=C2\SC(=S)N([C@@H](Cc3c[nH]c4ccccc34)C(=O)O)C2=O)cc1)c1ccc(Cl)cc1Cl | 8 (≈ 13.1 µM)
Cc1ccc(C(=O)COc2ccc(/C=C3\SC(=S)N([C@@H](Cc4c[nH]c5ccccc45)C(=O)O)C3=O)cc2)cc1 | 8 (≈ 14.4 µM)
O=C(COc1ccc(/C=C2\SC(=S)N([C@@H](Cc3c[nH]c4ccccc34)C(=O)O)C2=O)cc1)c1ccccc1 | 8 (≈ 14.7 µM)
O=C(COc1ccc(/C=C2\SC(=S)N([C@@H](Cc3ccc(O)cc3)C(=O)O)C2=O)cc1)c1ccccc1Br | 32 (≈ 53.5 µM)
O=C(COc1ccc(/C=C2\SC(=S)N([C@@H](Cc3ccc(O)cc3)C(=O)O)C2=O)cc1)c1ccc(F)cc1 | 8 (≈ 14.9 µM)

Each compound was assayed on Staphylococcus aureus (assay: Ratio of MIC for norfloxacin to compound for methicillin-resistant Staphylococcus aureus CCARM 3506 after 24 hrs by two-fold serial dilution method). Conditions: not given.
Format: functional

SMILES | Ratio
O=C(COc1ccc(/C=C2\SC(=S)N([C@@H](Cc3c[nH]c4ccccc34)C(=O)O)C2=O)cc1)c1cccc(Cl)c1 | 4

The compounds below were run on Staphylococcus aureus (assay: Ratio of MIC for norfloxacin to compound for methicillin-resistant Staphylococcus aureus CCARM 3167 after 24 hrs by two-fold serial dilution method). Conditions: not given.
Format: functional

SMILES | Ratio
O=C(COc1ccc(/C=C2\SC(=S)N([C@@H](Cc3c[nH]c4ccccc34)C(=O)O)C2=O)cc1)c1cccc(Cl)c1 | 4
